The values that follow come from patent US8404708B2, “Dual NK1/NK3 receptor antagonists” (Hoffmann-La Roche Inc., priority 2004, dated 2013).

Test [1] concerns the target T1, Recombinant human NK3 (hNK3) receptor (Homo sapiens, UniProt P29371).
T1 construct: expressed in transfected cells
T1 sequence (P29371 1-465): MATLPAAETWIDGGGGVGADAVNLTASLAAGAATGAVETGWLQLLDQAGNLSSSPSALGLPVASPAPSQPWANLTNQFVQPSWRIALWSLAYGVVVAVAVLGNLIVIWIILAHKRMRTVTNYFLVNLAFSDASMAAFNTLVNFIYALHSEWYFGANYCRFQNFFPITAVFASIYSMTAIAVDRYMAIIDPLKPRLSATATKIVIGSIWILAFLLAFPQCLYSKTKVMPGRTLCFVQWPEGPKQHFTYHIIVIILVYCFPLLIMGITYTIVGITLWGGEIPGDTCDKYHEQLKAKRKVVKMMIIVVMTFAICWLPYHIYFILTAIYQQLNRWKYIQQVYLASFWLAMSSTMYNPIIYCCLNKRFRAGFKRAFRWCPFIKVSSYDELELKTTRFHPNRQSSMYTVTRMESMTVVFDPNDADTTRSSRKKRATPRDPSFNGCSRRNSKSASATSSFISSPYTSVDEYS
In words: NK3 receptor binding, [3H]SR142801 displacement, membrane preparations. Particulars: for Ki: second value of the cell NK1/NK3, read-out: pKi NK3 (converted); for pKi: second value of the cell pKi NK1/NK3, hNK3 receptor, [3H]SR142801. The method, boiled down:
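Incubation ran 90 min at room temperature in 50 mM Tris-HCl pH 7.4 with 0.1% BSA, 4 mM MnCl2 and 1 μM phosphoramidon, using about 2.5 μg hNK3 membrane protein per well. Nonspecific binding was defined with 10 μM SB222200, and bound radioactivity was collected on PEI-soaked GF/C filters for scintillation counting.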

The target of test [2] is human NK1 receptor (Homo sapiens, UniProt P25103). In words: NK1 receptor binding, [3H]substance P displacement, CHO cell membranes. Particulars: for Ki: first value of the cell NK1/NK3, read-out: pKi NK1 (converted); for pKi: first value of the cell pKi NK1/NK3, human NK1 receptor, [3H]substance P.
Sequence of human NK1 receptor (P25103 whole entry): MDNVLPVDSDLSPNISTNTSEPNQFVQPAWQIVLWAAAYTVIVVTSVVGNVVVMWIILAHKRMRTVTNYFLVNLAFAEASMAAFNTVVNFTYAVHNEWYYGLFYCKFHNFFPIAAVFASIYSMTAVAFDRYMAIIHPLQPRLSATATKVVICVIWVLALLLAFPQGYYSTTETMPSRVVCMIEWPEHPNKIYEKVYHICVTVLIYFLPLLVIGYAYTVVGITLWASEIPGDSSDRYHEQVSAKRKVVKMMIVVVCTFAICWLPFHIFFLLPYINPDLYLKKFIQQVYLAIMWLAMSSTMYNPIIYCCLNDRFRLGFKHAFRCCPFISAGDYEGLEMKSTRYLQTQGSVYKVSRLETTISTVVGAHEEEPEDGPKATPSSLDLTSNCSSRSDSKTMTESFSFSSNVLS

pKi: −log10 of the molar value. Like-named read-outs stand apart in the source and are kept apart here.

As for `CN(C(=O)C(C)(C)c1cc(C(F)(F)F)cc(C(F)(F)F)c1)c1cnc(N2CC[C@H](O)[C@H]2CO)cc1-c1ccc(Cl)c(Cl)c1` [Example 268, (2R,3S)-2-(3,5-Bis-trifluoromethyl-phenyl)-N-[4-(3,4-dichloro-phenyl)-6-(3-hydroxy-2-hydroxymethyl-pyrrolidin-1-yl)-pyridin-3-yl]-N-methyl-isobutyramide], the values for the Ki in test [1] and in test [2] were 2.4 nM and 2.29 nM, respectively.

A word on the pKi: it is the Ki on a negative log10 scale, so that one unit is a factor of ten. `CN(C(=O)C(C)(C)c1cc(C(F)(F)F)cc(C(F)(F)F)c1)c1cnc(N2CCC[C@@H]2CO)cc1-c1ccc(Cl)cc1Cl` [Example 94, (R)-2-(3,5-Bis-trifluoromethyl-phenyl)-N-[4-(2,4-dichloro-phenyl)-6-(2-hydroxymethyl-pyrrolidin-1-yl)-pyridin-3-yl]-N-methyl-isobutyramide]: the pKi is 7.83 in test [1] and 8.37 in test [2].

In the case of `CC(=O)NCCNc1cc(-c2ccccc2Cl)c(N(C)C(=O)C(C)(C)c2cc(C(F)(F)F)cc(C(F)(F)F)c2)cn1` [Example 90, N-[6-(2-Acetylamino-ethylamino)-4-(2-chloro-phenyl)-pyridin-3-yl]-2-(3,5-bis-trifluoromethyl-phenyl)-N-methyl-isobutyramide], the pKi was 8.22 in test [1] and 8.75 in test [2].

With `Cc1ccccc1-c1cc(N2CC[C@H](O)[C@@H](CO)C2)ncc1N(C)C(=O)C(C)(C)c1cc(C(F)(F)F)cc(C(F)(F)F)c1` (racemic) [Example 191, (3RS,4SR)-2-(3,5-Bis-trifluoromethyl-phenyl)-N-(4-hydroxy-3-hydroxymethyl-4′-o-tolyl-3,4,5,6-tetrahydro-2H-[1,2′]bipyridinyl-5′-yl)-N-methyl-isobutyramide], the negative-log Ki (pKi) is 7.61 in test [1] and 8.69 in test [2].

Consider `CN(C(=O)C(C)(C)c1cc(C(F)(F)F)cc(C(F)(F)F)c1)c1cnc(N2C[C@@H](O)C[C@H]2CO)cc1-c1ccccc1` [Example 247, (2S,4S)-2-(3,5-Bis-trifluoromethyl-phenyl)-N-[6-(4-hydroxy-2-hydroxymethyl-pyrrolidin-1-yl)-4-phenyl-pyridin-3-yl]-N-methyl-isobutyramide], for which the Ki in test [1] was 15.8 nM; in test [2], 1.51 nM.

For the compound `CCCCN(CCO)c1cc(-c2ccccc2Cl)c(N(C)C(=O)C(C)(C)c2cc(C(F)(F)F)cc(C(F)(F)F)c2)cn1` [Example 57, 2-(3,5-Bis-trifluoromethyl-phenyl)-N-[6-[butyl-(2-hydroxy-ethyl)-amino]-4-(2-chloro-phenyl)-pyridin-3-yl]-N-methyl-isobutyramide], the values for the pKi in test [1] and in test [2] were 7.56 and 8.00, respectively.

Turning to `Cc1ccccc1-c1cc(N2CCOC(CO)C2)ncc1N(C)C(=O)C(C)(C)c1cc(C(F)(F)F)cc(C(F)(F)F)c1` (racemic) [Example 176, (RS)-2-(3,5-Bis-trifluoromethyl-phenyl)-N-[6-(2-hydroxymethyl-morpholin-4-yl)-4-o-tolyl-pyridin-3-yl]-N-methyl-isobutyramide], the pKi is 7.58 in test [1] and 8.68 in test [2].

On to `Cc1cc(F)ccc1-c1cc(NC[C@H](C)O)ncc1N(C)C(=O)C(C)(C)c1cc(C(F)(F)F)cc(C(F)(F)F)c1` [Example 77, (S)-2-(3,5-Bis-trifluoromethyl-phenyl)-N-[4-(4-fluoro-2-methyl-phenyl)-6-(2-hydroxy-propylamino)-pyridin-3-yl]-N-methyl-isobutyramide], for which the pKi in test [1] was 8.32; in test [2], 9.19.

With `CN(C(=O)C(C)(C)c1cc(C(F)(F)F)cc(C(F)(F)F)c1)c1cnc(NC[C@H](O)CO)cc1-c1ccccc1Cl` [Example 125, (S)-2-(3,5-Bis-trifluoromethyl-phenyl)-N-[4-(2-chloro-phenyl)-6-(2,3-dihydroxy-propylamino)-pyridin-3-yl]-N-methyl-isobutyramide], the pKi in test [1] was 7.86; in test [2], 8.55.

As to `CN(C(=O)C(C)(C)c1cc(C(F)(F)F)cc(C(F)(F)F)c1)c1cnc(N2CC[C@H](O)[C@H]2CO)cc1-c1cc(F)ccc1F` [Example 277, (2R,3S)-2-(3,5-Bis-trifluoromethyl-phenyl)-N-[4-(2,5-difluoro-phenyl)-6-(3-hydroxy-2-hydroxymethyl-pyrrolidin-1-yl)-pyridin-3-yl]-N-methyl-isobutyramide], the results for the Ki in test [1] and in test [2] were 2.45 nM and 1.48 nM, respectively.

For the compound `CN(C(=O)C(C)(C)c1cc(C(F)(F)F)cc(C(F)(F)F)c1)c1cnc(N2CCC[C@H]2CO)cc1-c1ccccc1Br` [Example 281, (S)-2-(3,5-Bis-trifluoromethyl-phenyl)-N-[4-(2-bromo-phenyl)-6-(2-hydroxymethyl-pyrrolidin-1-yl)-pyridin-3-yl]-N-methyl-isobutyramide], the values for the Ki in test [1] and in test [2] were 1.82 nM and 3.47 nM, respectively.

For the compound `Cc1cc(F)ccc1-c1cc(N2CCNC(=O)CC2)ncc1N(C)C(=O)C(C)(C)c1cc(C(F)(F)F)cc(C(F)(F)F)c1` [Example 164, 2-(3,5-Bis-trifluoromethyl-phenyl)-N-[4-(4-fluoro-2-methyl-phenyl)-6-(5-oxo-[1,4]diazepan-1-yl)-pyridin-3-yl]-N-methyl-isobutyramide], the negative logarithm of the Ki (pKi) in test [1] is 7.80; in test [2], 8.79.

Regarding `Cc1ccccc1-c1cc(N2C[C@H](O)[C@@H](O)C2)ncc1N(C)C(=O)C(C)(C)c1cc(C(F)(F)F)cc(C(F)(F)F)c1` [Example 183, (3S,4S)-2-(3,5-Bis-trifluoromethyl-phenyl)-N-[6-(3,4-dihydroxy-pyrrolidin-1-yl)-4-o-tolyl-pyridin-3-yl]-N-methyl-isobutyramide], the pKi was 7.57 in test [1] and 8.96 in test [2].

On to `COc1ccccc1-c1cc(N2C[C@@H](O)C[C@H]2CO)ncc1N(C)C(=O)C(C)(C)c1cc(C(F)(F)F)cc(C(F)(F)F)c1` [Example 244, (2S,4S)-2-(3,5-Bis-trifluoromethyl-phenyl)-N-[6-(4-hydroxy-2-hydroxymethyl-pyrrolidin-1-yl)-4-(2-methoxy-phenyl)-pyridin-3-yl]-N-methyl-isobutyramide], for which the Ki is 7.08 nM in test [1] and 1 nM in test [2].

Regarding `CN(C(=O)C(C)(C)c1cc(C(F)(F)F)cc(C(F)(F)F)c1)c1cnc(N[C@@H]2CCC[C@H]2O)cc1-c1ccccc1Cl` [Example 152, (1R,2R)-2-(3,5-Bis-trifluoromethyl-phenyl)-N-[4-(2-chloro-phenyl)-6-(2-hydroxy-cyclopentylamino)-pyridin-3-yl]-N-methyl-isobutyramide], the pKi in test [1] is 8.11; in test [2] it was 9.12.

Regarding `CC(=O)N(C)[C@H]1CCN(c2cc(-c3ccc(F)cc3C)c(N(C)C(=O)C(C)(C)c3cc(C(F)(F)F)cc(C(F)(F)F)c3)cn2)C1` [Example 107, (S)-N-[6-[3-(Acetyl-methyl-amino)-pyrrolidin-1-yl]-4-(4-fluoro-2-methyl-phenyl)-pyridin-3-yl]-2-(3,5-bis-trifluoromethyl-phenyl)-N-methyl-isobutyramide], the values for the pKi in test [1] and in test [2] were 7.93 and 8.63, respectively.

Consider `CN(C(=O)C(C)(C)c1cc(F)cc(C(F)(F)F)c1)c1cnc(N2CCC[C@H]2CO)cc1-c1ccccc1Cl` [Example 4, (S)-N-[4-(2-Chloro-phenyl)-6-(2-hydroxymethyl-pyrrolidin-1-yl)-pyridin-3-yl]-2-(3-fluoro-5-trifluoromethyl-phenyl)-N-methyl-isobutyramide], for which the results for the pKi in test [1] and in test [2] were 8.81 and 8.35, respectively.

Regarding `CN(C(=O)C(C)(C)c1cc(C(F)(F)F)cc(C(F)(F)F)c1)c1cnc(N2CCC[C@@H]2CO)cc1-c1ccc(Cl)c(Cl)c1` [Example 95, (R)-2-(3,5-Bis-trifluoromethyl-phenyl)-N-[4-(3,4-dichloro-phenyl)-6-(2-hydroxymethyl-pyrrolidin-1-yl)-pyridin-3-yl]-N-methyl-isobutyramide], the pKi in test [1] was 8.03; in test [2] it was 8.42.

On to `Cc1ccc(F)cc1-c1cc(N(CCO)CCO)ncc1N(C)C(=O)C(C)(C)c1cc(C(F)(F)F)cc(C(F)(F)F)c1` [Example 128, N-[6-[Bis-(2-hydroxy-ethyl)-amino]-4-(5-fluoro-2-methyl-phenyl)-pyridin-3-yl]-2-(3,5-bis-trifluoromethyl-phenyl)-N-methyl-isobutyramide], for which the values for the pKi in test [1] and in test [2] were 8.25 and 8.58, respectively.

Consider `CC(O)CN(CC(C)O)c1cc(-c2ccccc2Cl)c(N(C)C(=O)C(C)(C)c2cc(C(F)(F)F)cc(C(F)(F)F)c2)cn1` (stereo not drawn) [Example 124, N-[6-[Bis-(2-hydroxy-propyl)-amino]-4-(2-chloro-phenyl)-pyridin-3-yl]-2-(3,5-bis-trifluoromethyl-phenyl)-N-methyl-isobutyramide], for which the pKi was 7.86 in test [1] and 8.58 in test [2].

In the case of `CSc1ccccc1-c1cc(N2C[C@H](O)C[C@H]2CO)ncc1N(C)C(=O)C(C)(C)c1cc(C(F)(F)F)cc(C(F)(F)F)c1` [Example 217, (2S,4R)-2-(3,5-Bis-trifluoromethyl-phenyl)-N-[6-(4-hydroxy-2-hydroxymethyl-pyrrolidin-1-yl)-4-(2-methylsulfanyl-phenyl)-pyridin-3-yl]-N-methyl-isobutyramide], the Ki in test [1] was 2.4 nM; in test [2], 1.05 nM.
